For test [1], the target named is CDK7/Cyclin H/MNAT1 (Homo sapiens) (UniProt P51946+P50613+P51948). Briefly: Selectivity interaction (ProQinase) EUB0000171b CDK7. It counts as protein-complex assay.
Test [2] has as its target Ribosomal protein S6 kinase alpha-5 (Homo sapiens) (UniProt O75582). The experiment in a line: Selectivity interaction (KinomeScan (DiscoverX)) EUB0001079a RPS6KA5. The conditions noted are these: at 1 µM.
Test [3] has as its target cAMP-dependent protein kinase catalytic subunit alpha (Homo sapiens, UniProt P17612). The experiment in a line: Selectivity interaction (KinomeScan (DiscoverX)) EUB0000695a PRKACA. The settings on record: at 100 nM.
The target in test [4] is T1, Serine/threonine-protein kinase LATS1 (Homo sapiens) (UniProt O95835).
T1 sequence (whole entry): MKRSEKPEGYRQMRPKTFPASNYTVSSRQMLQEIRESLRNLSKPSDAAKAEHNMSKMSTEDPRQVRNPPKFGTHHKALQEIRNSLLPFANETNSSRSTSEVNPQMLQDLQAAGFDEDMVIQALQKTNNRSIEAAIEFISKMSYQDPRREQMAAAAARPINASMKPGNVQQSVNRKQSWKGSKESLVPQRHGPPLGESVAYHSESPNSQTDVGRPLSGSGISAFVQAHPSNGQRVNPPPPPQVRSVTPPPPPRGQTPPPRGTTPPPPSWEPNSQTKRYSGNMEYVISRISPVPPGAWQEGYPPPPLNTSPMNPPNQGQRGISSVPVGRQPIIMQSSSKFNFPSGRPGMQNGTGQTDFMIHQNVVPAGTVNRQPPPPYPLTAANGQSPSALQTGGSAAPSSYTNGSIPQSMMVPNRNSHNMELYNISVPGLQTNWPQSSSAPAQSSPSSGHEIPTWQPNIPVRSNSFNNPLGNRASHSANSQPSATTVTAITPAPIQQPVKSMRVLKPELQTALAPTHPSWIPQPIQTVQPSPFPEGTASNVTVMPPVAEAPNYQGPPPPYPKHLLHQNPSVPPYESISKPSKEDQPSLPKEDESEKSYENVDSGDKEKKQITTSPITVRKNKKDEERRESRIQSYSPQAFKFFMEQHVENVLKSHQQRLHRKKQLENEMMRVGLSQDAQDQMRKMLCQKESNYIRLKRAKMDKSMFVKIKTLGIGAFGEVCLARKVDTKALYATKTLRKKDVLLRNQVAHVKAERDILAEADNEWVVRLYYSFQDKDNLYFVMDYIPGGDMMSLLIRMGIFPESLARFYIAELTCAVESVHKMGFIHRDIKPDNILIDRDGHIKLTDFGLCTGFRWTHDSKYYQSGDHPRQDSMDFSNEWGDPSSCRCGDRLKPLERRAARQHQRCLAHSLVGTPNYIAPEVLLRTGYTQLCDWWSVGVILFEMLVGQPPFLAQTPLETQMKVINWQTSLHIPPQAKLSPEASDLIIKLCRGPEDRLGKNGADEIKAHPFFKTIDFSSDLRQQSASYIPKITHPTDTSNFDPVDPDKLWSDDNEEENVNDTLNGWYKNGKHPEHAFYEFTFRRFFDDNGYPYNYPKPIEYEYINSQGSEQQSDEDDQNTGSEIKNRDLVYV
The experiment in a line: Selectivity interaction (ActivX KiNativ screen (kinase selectivity in THP-1 cell lysates)) EUB0000639a LATS1. In kind it is subcellular. The conditions noted are these: lysate.

Test [5] deals with T2, Serine/threonine-protein kinase MAK (Homo sapiens) (UniProt P20794).
T2 sequence (whole entry): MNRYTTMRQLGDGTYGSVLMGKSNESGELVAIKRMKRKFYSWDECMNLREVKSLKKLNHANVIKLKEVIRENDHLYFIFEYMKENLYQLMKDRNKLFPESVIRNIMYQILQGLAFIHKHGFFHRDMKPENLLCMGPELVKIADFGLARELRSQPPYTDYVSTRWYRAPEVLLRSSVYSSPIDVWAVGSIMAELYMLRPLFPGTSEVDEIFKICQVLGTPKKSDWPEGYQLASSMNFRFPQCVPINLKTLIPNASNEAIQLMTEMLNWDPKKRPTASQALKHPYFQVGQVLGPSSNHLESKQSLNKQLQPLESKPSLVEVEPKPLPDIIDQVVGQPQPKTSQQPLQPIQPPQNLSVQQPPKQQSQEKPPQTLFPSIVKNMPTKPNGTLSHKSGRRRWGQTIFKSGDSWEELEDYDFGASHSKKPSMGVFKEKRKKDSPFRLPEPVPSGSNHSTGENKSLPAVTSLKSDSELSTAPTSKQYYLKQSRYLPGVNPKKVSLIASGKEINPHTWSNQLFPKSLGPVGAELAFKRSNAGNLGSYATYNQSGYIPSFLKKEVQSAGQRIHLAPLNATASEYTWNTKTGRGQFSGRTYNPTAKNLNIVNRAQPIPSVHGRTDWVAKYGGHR
Briefly: Selectivity interaction (KinomeScan (DiscoverX)) EUB0001619a MAK. The settings on record: at 1 µM.

The target of test [6] is T3, Mitogen-activated protein kinase kinase kinase kinase 3 (Homo sapiens) (UniProt Q8IVH8).
T3 sequence (whole entry): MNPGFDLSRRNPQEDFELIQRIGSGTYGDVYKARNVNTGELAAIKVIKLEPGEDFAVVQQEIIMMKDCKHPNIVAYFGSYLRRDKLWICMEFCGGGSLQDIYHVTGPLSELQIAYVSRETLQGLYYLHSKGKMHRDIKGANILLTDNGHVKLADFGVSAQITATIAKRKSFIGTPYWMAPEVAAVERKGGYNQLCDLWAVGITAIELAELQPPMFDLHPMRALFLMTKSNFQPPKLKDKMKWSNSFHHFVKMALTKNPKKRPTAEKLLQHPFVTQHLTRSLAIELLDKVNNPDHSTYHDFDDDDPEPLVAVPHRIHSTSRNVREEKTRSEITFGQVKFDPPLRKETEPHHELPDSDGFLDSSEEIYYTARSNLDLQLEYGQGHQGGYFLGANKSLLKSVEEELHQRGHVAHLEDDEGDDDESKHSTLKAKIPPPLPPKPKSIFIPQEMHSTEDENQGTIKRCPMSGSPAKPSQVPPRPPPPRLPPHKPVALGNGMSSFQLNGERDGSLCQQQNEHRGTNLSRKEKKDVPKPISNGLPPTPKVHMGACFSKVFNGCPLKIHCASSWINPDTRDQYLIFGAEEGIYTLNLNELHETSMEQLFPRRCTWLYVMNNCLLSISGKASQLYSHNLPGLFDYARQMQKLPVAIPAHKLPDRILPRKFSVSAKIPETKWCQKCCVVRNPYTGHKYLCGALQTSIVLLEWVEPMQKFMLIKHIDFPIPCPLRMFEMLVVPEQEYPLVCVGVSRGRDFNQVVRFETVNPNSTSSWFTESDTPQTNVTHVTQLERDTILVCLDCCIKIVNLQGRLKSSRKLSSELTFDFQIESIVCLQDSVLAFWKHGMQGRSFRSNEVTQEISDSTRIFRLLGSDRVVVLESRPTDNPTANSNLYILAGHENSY
The experiment in a line: Selectivity interaction (KinomeScan (DiscoverX)) EUB0000618a MAP4K3. The conditions noted are these: at 10 µM.

Each structure is given as a SMILES string.

Sequence of Ribosomal protein S6 kinase alpha-5 (Homo sapiens) (O75582 whole entry, looked up): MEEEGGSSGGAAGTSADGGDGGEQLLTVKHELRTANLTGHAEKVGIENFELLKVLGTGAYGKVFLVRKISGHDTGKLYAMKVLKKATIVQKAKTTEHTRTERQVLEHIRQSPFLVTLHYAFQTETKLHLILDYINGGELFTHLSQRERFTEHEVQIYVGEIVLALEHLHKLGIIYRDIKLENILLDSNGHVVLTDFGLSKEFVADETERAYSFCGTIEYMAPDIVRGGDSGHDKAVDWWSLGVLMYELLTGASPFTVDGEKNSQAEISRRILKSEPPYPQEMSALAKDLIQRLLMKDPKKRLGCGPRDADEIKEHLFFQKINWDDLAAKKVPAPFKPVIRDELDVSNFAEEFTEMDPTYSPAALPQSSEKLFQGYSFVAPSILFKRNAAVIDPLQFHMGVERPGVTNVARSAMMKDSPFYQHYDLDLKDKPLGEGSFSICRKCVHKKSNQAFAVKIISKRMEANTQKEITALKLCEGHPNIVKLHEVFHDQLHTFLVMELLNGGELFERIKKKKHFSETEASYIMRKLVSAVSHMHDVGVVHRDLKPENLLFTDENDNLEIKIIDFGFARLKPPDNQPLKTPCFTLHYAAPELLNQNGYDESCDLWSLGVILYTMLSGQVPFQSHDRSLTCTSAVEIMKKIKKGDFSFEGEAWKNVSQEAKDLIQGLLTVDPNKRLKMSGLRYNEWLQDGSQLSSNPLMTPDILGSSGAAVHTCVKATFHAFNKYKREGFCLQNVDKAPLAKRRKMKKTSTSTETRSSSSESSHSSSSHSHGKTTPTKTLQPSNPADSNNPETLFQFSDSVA

With `C=CC(=O)Nc1cccc(C(=O)Nc2ccc(Nc3cc(-c4[nH]c(SC)nc4C)ccn3)cc2)c1`, the % of control in test [1] (at 1 µM) turned out to be 89%; in test [1] (at 5 µM), 86%.

As to `Nc1cnc(N2CCc3cc(S(=O)(=O)Nc4c(F)cc(Cl)cc4F)cc(N4CCCC4=O)c32)nc1` [TP-020n], the % of control in test [2] is 100%.

In the case of `Cc1cc(F)c(C(=O)Nc2cccc(-c3nncn3C(C)C)n2)cc1-n1cnc(C2CC2)c1`, the % of control in test [3] was 99%.

With `CC[C@@H]1[C@H](F)C(=O)N[C@@H]1COc1nccc2cc(C(N)=O)c(OC)cc12` [ZIMLOVISERTIB], the % of inhibition is -5.5% in test [4] (at 0.01 µM); -23.7% in test [4] (at 0.04 µM); -87.3% in test [4] (at 0.2 µM); -76.3% in test [4] (at 1 µM); -29.4% in test [4] (at 5 µM).

`N#Cc1cccc(-c2c[nH]c3ncnc(N4CCOCC4)c23)c1` registered a % of control in test [5] of 94%.

As for `O[C@H]1CC[C@H](Nc2ncc3nc(Nc4c(F)cc(F)cc4F)n([C@H]4CCOC4)c3n2)CC1`, in test [6], the % of control turned out to be 85%.
